Where a name gives a salt, the structure may show the parent alone. Read-outs that look alike come from different tables or passages of the source.
Key:
[1] = molecular target: T1, monoamine oxidase (type B, β-phenylethylamine substrate) (Rattus norvegicus, UniProt P19643); assay: In-vitro monoamine oxidase inhibition, [14C]phenylethylamine hydrochloride as substrate; assay type: biochemical; details: rat brain monoamine oxidase extract, 37° C., 20 minutes, pH 7.4, read-out: I.C.50 -value using as substrate [14C]phenylethylamine.HCl
T1 sequence (P19643 1-520): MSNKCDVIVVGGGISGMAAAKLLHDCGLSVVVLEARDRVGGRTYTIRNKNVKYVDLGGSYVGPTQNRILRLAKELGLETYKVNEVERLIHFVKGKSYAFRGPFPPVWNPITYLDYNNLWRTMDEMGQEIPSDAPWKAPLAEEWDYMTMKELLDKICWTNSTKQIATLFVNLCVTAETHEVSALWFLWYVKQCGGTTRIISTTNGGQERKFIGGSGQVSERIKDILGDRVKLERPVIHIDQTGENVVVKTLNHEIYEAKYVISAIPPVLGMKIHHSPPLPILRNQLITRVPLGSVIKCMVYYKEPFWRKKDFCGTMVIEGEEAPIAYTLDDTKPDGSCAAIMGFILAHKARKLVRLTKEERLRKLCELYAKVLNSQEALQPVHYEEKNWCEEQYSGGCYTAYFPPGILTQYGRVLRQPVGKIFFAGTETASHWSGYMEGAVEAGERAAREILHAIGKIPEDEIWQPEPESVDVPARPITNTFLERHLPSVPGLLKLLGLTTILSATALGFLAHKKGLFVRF

[2] = molecular target: T2, monoamine oxidase (type A, tryptamine substrate) (Rattus norvegicus, UniProt P21396); assay: In-vitro monoamine oxidase inhibition, [14C]tryptamine as substrate; assay type: biochemical; details: rat brain monoamine oxidase extract, 37° C., 20 minutes, pH 7.4, read-out: I.C.50 -value using as substrate [14C]tryptamine
T2 sequence (P21396 1-526): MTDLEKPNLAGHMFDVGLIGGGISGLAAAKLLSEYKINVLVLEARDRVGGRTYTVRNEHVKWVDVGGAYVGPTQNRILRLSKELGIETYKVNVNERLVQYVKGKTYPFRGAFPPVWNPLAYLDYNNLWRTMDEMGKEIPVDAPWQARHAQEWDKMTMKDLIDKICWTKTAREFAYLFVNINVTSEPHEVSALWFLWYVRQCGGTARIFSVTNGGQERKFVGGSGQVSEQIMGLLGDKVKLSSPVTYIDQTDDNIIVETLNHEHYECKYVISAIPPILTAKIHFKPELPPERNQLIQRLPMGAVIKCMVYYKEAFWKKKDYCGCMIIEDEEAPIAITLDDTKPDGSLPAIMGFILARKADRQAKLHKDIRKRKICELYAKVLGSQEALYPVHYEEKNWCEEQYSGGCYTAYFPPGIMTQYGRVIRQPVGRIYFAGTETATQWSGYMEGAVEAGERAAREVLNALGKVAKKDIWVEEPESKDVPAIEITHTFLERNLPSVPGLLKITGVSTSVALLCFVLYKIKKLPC

Structure (SMILES)	IC50 ([1]; Table 1)	IC50 ([2]; Table 1)	IC50 ([1]; Table 2)	IC50 ([2]; Table 2)
c1ccc2cc3c(cc2c1)SC1=NCCCN13 [7,8-(CHCHCHCH)]	9 µM	0.03 µM	–	–
Nc1cccc2c1SC1=NCCCN12 [Example 9-NH2, 3,4-dihydro-2H-pyrimido[2,1-b]benzothiazol-9-amine dihydrochloride]	90 µM	0.35 µM	–	–
CC[N+]1=C2Sc3ccc(NC(C)C)cc3N2CCC1	–	–	45 µM	0.011 µM
CC(C)Nc1ccc2c(c1)SC1=NCCCN12 [8-NHi.C3 H7]	20 µM	0.09 µM	–	–
NC(=O)Nc1ccc2c(c1)N1CCCN=C1S2 [Example 7-NHCONH2, N-(3,4-dihydro-2H-pyrimido[2,1-b]benzothiazol-7-yl)urea]	12 µM	0.85 µM	–	–
CCNc1cccc2c1SC1=NCCCN12 [9-NHC2 H5, N-ethyl-3,4-dihydro-2H-pyrimido[2,1-b]benzothiazol-9-amine]	100 µM	0.003 µM	–	–
Cc1ccc(C(C)(C)C)c2c1N1CCCN=C1S2 [6-CH3,9-C(CH3)3]	> 100 µM	0.065 µM	–	–
C=CC[N+]1=C2Sc3ccc(CCCCCCCCC)cc3N2CCC1	–	–	0.38 µM	0.25 µM

The next lines start with the values.

IC50 ([1]; Table 1)	IC50 ([2]; Table 1)	IC50 ([1]; Table 2)	IC50 ([2]; Table 2)	Structure (SMILES)
0.034 µM	20 µM	–	–	COc1cc(CNc2ccc3c(c2)SC2=NCCCN23)cc(OC)c1OC [8-NHCH2 [3,4,5-(OCH3)3C6 H2]]
0.05 µM	0.0085 µM	–	–	c1cc2c(cc1C1CCCCC1)SC1=NCCCN12 [8-c.C6 H11]
0.02 µM	1 µM	–	–	Cc1ccc(CNc2ccc3c(c2)SC2=NCCCN23)cc1 [8-NHCH2 (4-CH3C6 H4)]
0.305 µM	0.0034 µM	–	–	CCC(CC)Nc1ccc2c(c1)N1CCCN=C1S2 [7-NHCH(C2 H5)2, N-(1-ethylpropyl)-3,4-dihydro-2H-pyrimido[2,1-b]benzothiazol-7-amine]
0.12 µM	0.005 µM	–	–	c1cc2c(cc1NC1CCCC1)N1CCCN=C1S2 [7-NHc.C5 H9]
0.26 µM	0.032 µM	–	–	CCCCc1ccc2c(c1)SC1=NCCCN12 [8-C4 H9]
1.2 µM	0.02 µM	–	–	CCCc1ccc2c(c1)N1CCCN=C1S2 [7-C3 H7]
2.5 µM	0.12 µM	–	–	O=C(c1ccccc1)c1ccc2c(c1)N1CCCN=C1S2 [7-COC6 H5]
0.065 µM	0.25 µM	–	–	COc1ccc(CNc2ccc3c(c2)N2CCCN=C2S3)cc1 [7-NHCH2 (4-OCH3C6 H4)]
0.16 µM	20 µM	–	–	CCOC(=O)C(=CNc1ccc2c(c1)SC1=NCCCN12)C(=O)OCC [8-NHCHC(COOEt)2]
